Test: in vivo
Conditions: BALB/c, mouse, iv
Excerpt: The complex disclosed in the present application is preferably retained in the blood until completion of X-ray CT imaging after administration and is preferably excreted by the kidneys by the time of the next X-ray CT imaging. […] As a matter of course, the half-life in blood may be shorter or longer than the above half-life in blood in the case of imaging a temporary structure instead of imaging structural change over time or using a typical X-ray CT imaging device. The half-life in blood can be adjusted by changing the type of protein or the size of the complex. The “half-life in blood” means the time it takes for the X-ray CT value of the complex to decrease by half from the maximum value after administration in vivo. However, the shortest time at which X-ray CT imaging can be started after administration of a contrast agent is about 5 minutes, and thus the measurement value at the time when X-ray CT imaging is started 5 minutes after administration of the contrast agent is defined as the “maximum value after administration in vivo” in the present specification.
Imaging was performed using a micro X-ray CT device (SkyScan1176, Bruker) under conditions of a tube voltage of 50 kV, a tube current of 500 μA, and 35 μm/voxel, 18 μm/voxel, or 9 μm/voxel. The contrast agents synthesized in Example 1 and Comparative Examples 1 and 2 were imaged in vitro. In vivo, 200 μL of each contrast agent was injected into an anesthetized mouse from the tail vein, and CT imaging was performed once or twice. Slice images were acquired using CTAn (Bruker), and volume rendered images were acquired using CTVOX. CT values were calculated by defining the value of Hounsfield Units (HU) as −1000 for air and 0 for water.
The image before the administration of the contrast agent was taken as 0 min (before injection).
FIGS. 16 and 17 show CT images of mouse hearts before and after intravenous administrations of the contrast agents. […] In addition, in FIGS. 16 and 17, the dotted line circles indicate the contour of the hearts, and the tips of the arrows (white and black) indicate the positions of the septa of the hearts.
FIG. 18 is a graph showing results of measuring changes in CT values of ventricles over time.

CT value of ventricles: 72 HU
half-life: < 1 h
CT value of ventricles (5 min): 291 HU
CT value of ventricles (60 min): 130 HU
CT value of ventricles (180 min): 75 HU
CT value of ventricles (360 min): 87 HU
CT value of ventricles (24 h): 72 HU
Compound: C[C@H](O)C(=O)Nc1c(I)c(C(=O)NC(CO)CO)c(I)c(C(=O)NC(CO)CO)c1I [iopamidol, Iopamidol]

Source: US20240139347A1, “COMPLEX, VASCULAR CONTRAST AGENT, X-RAY CONTRAST AGENT, METHOD FOR PRODUCING COMPLEX, AND IMAGING METHOD FOR CAPTURING STRUCTURAL CHANGE IN VESSEL” (TOHOKU UNIVERSITY, priority 2021, published 2024)
